Legend:
[1] = metabolic stability in human liver microsomes; type: in vitro ADME; conditions: estimated maximum oral bioavailability from human liver microsome incubation; 0.3 μM, 0.5 mg/ml protein, 37° C., 60 min
Procedure: The metabolic stability of test substances was determined by incubations in a suspension with human liver microsomes adjusted to a protein content of 0.5 mg/ml, at a concentration of 0.3 μM. The incubation volume was 3.03 ml, where 2.4 ml of a microsome suspension in phosphate buffer at pH 7.4 (sodium phosphate buffer 100 mM (NaH2PO4×H2O+Na2HPO4×2H2O) were initially charged, which were activated by addition of 0.6 ml of a cofactor mix (consisting of 1.2 mg of NADP, 3 IU of glucose 6-phosphate dehydrogenase, 14.6 mg of glucose 6-phosphate and 4.9 mg of MgCl2 in phosphate buffer, pH 7.4). The assay was started by addition of 30 μL of a test substance stock solution, where the composition of the stock solution was such that the solvent concentrations during the incubation were <0.2% for DMSO and <1% for methanol. The incubations were carried out at an incubation temperature of 37° C. over a period of 60 minutes, during which time the microsomes were kept in a homogeneous suspension by continuous stirring (Tec Control Shaker RS 485 at 300 rpm). At 6 different points in time (2, 8, 16, 30, 45 & 60 min), aliquots of in each case 250 μl were removed and immediately added to the same volume of ice-cold methanol and covered.
The decrease in concentrations over time were used to determine the half-life of the test substance in the microsomal incubation mixture described above, which in turn was used to calculate the “intrinsic clearance”, the maximum liver microsome rate for the metabolic elimination of the test substance. This “intrinsic clearance” for its part can be used together with various physiological parameters to estimate the maximum metabolic clearance in man, where the principle mentioned above is only capable of representing phase I metabolic reactions (typically: oxidoreductive reactions of Zytochrom P450 enzymes or flavin monooxigenase, and also hydrolytic reactions of esterases and amidases). Physiological parameters are: human liver blood flow: 1.3 l/kg/h; specific liver weight (per kg of body weight): 21 g/kg; microsomal protein content: 40 mg/g of liver. Furthermore, assuming that (i) the resorption of the test substance in humans is 100%, and (ii) the estimated metabolic clearance can be calculated as first pass, a maximum oral bioavailability (Fmax) was estimated.
Formulae & brief illustrations: CL intrinsic-apparent [in ml/(min*mg of protein)]: reflects the elimination constant kel (in min-1) of the test substance in the incubation mixture, divided by the microsomal protein content ([…]). CL intrinsic [in l(h*kg)]: maximum capability of the liver (microsomes) for metabolic elimination of the test substance, unless the liver blood flow is the limiting factor (kel*liver weight)/liver proportion (microsomal content) in the incubation. CL blood-well stirred [in l/(h*kg)]: estimated blood clearance (via Phase 1 metabolism): (QH*CL intrinsic)/(QH+CL intrinsic). Fmax [in %]: maximum bioavailability after oral administration of the test substance: (1-CL blood-well stirred/QH)*100.

[2] = tested on: uterus growth in rats with simultaneous administration of oestradiol benzoate (EB); test: uterus growth test in infant rats, p.o. (test for antioestrogen action); type: in vivo, rat; conditions: inhibition of uterus growth relative to EB control; infant female rats; 0.5 μg EB/0.1 ml s.c. plus test compound p.o. in the range of 0.03 mg/kg body weight, once daily for three days
Procedure: To examine the efficacy of the compounds according to the invention, in vivo tests with infant rats were carried out. To this end, the growth of the uterus with peroral administration (p.o.) of the pharmaceutical was examined (test for antioestrogen action).
The principle of this method is to investigate the effect of an administration of compounds having antioestrogen action with simultaneous administration of oestrogens. In rodents, the administration of oestrogens results in an increased weight of the uterus (both by proliferation and by hydropexia). This growth can be inhibited in a dosage-related manner by simultaneous administration of compounds with antioestrogen action.
For the tests, infant female rats having a weight of 35-45 g were examined at the start of the experiment. Five to six animals per dose were tested. For the p.o. administration, the substances were dissolved in one part of ethanol (E) and made up with nine parts of peanut oil (PO). For acclimatization, the young rats just dropped by the mothers were delivered one day before the start of the treatment and immediately supplied with food—right in the cage. For three days, the animals were then treated in combination with 0.5 μg of oestradiol benzoate (EB) once per day. EB was always administrated subcutaneously (s.c.), whereas the test substance was administered p.o. 24 hours after the last administration, the animals were weighed and killed, and the uteri were removed. The moist weights (less contents) of the prepared uteri were determined. The following control studies were carried out: for a negative control, 0.2 ml of an E/PO mixture was administered per animal and day. […]
For each group, the means with standard deviation (X±SD) and the significance of the differences to the control group (EB) of the relative organ weights (mg/100 g of body weight) were determined in the Dunnett test (p<0.05). The inhibition (in %) relative to the EB control was determined using a calculation programme. The relative efficacy of the test substances was calculated by covariance and regression analysis.

Row | SMILES | Fmax (micros.) [%] [1] [%] | Inhibition [%] [2]
1 | CN(CCCCCCCC(F)(F)C(F)(F)F)CCCCCC1Cc2cc(O)ccc2C2[C@@H]1C1CC[C@](C)(O)[C@@]1(C)C[C@@H]2F (stereo partly drawn) [Example C1, 11β-Fluoro-17α-methyl-7α-[5-[methyl(8,8,9,9,9-pentafluorononyl)amino]pentyl]oestra-1,3,5(10)-triene-3,17β-diol, reference compound] | 9 | 
2 | C[C@]1(O)CCC2[C@@H]3C(CCCCCN4CCC[C@H]4CCCCCCC(F)(F)C(F)(F)F)Cc4cc(O)ccc4C3[C@@H](F)C[C@@]21C (stereo partly drawn) [Example C2, 11β-Fluoro-17α-methyl-7α-[5-[(2R)-2-(7,7,8,8,8-pentafluorooctyl)-1-pyrrolidinyl]pentyl]-oestra-1,3,5(10)-triene-3,17β-diol, reference compound] | 9 | 
3 | C[C@]12C[C@H](F)C3c4ccc(O)cc4CC(CCCCCN4CCC[C@H]4CCCCCC(F)(F)C(F)(F)F)[C@H]3C1CC[C@@]2(C)O (stereo partly drawn) [Example 3, 11β-Fluoro-17β-methyl-7α-[5-[(2R)-2-(6,6,7,7,7-pentafluoroheptyl)-1-pyrrolidinyl]pentyl]oestra-1,3,5(10)-triene-3,17α-diol] | 40 | 40%
4 | CN(CCCCCCCC(F)(F)C(F)(F)F)CCCCCC1Cc2c(ccc(O)c2Cl)C2[C@@H]1C1CC[C@@](C)(O)[C@@]1(C)C[C@@H]2F (stereo partly drawn) [Example 4, 4-Chloro-11β-fluoro-17β-methyl-7α-[5-[methyl(8,8,9,9,9-pentafluorononyl)amino]pentyl]-oestra-1,3,5(10)-triene-3,17α-diol] | 39 | 
5 | C[C@]12C[C@H](F)C3c4ccc(O)c(Cl)c4CC(CCCCCN4CCC[C@H]4CCCCCC(F)(F)C(F)(F)F)[C@H]3C1CC[C@@]2(C)O (stereo partly drawn) [Example 9, 4-Chloro-11β-fluoro-17β-methyl-7α-[5-[(2R)-2-(6,6,7,7,7-pentafluoroheptyl)-1-pyrrolidinyl]pentyl]oestra-1,3,5(10)-triene-3,17α-diol] | 42 | 
6 | C[C@]12C[C@H](F)C3c4ccc(O)cc4CC(CCCCCN4CCC[C@H]4CCCCCCC(F)(F)C(F)(F)F)[C@H]3C1CC[C@@]2(C)O (stereo partly drawn) [Example 2, 11β-Fluoro-17β-methyl-7α-[5-[(2R)-2-(7,7,8,8,8-pentafluorooctyl)-1-pyrrolidinyl]pentyl]-oestra-1,3,5(10)-triene-3,17α-diol] | 36 | 70%
7 | C[C@]12C[C@H](F)C3c4cc(Cl)c(O)c(Cl)c4CC(CCCCCN4CCC[C@H]4CCCCCCC(F)(F)C(F)(F)F)[C@H]3C1CC[C@@]2(C)O (stereo partly drawn) [Example 10, 2,4-Dichloro-11β-fluoro-17β-methyl-7α-[5-[(2R)-2-(7,7,8,8,8-pentafluorooctyl)-1-pyrrolidinyl]pentyl]oestra-1,3,5(10)-triene-3,17α-diol] | 34 | 
8 | C[C@]12C[C@H](F)C3c4ccc(O)c(Br)c4CC(CCCCCN4CCC[C@H]4CCCCCC(F)(F)C(F)(F)F)[C@H]3C1CC[C@@]2(C)O (stereo partly drawn) [Example 8, 4-Bromo-11β-fluoro-17β-methyl-7α-[5-[(2R)-2-(6,6,7,7,7-pentafluoroheptyl)-1-pyrrolidinyl]pentyl]oestra-1,3,5(10)-triene-3,17α-diol] | 48 | 
9 | C[C@]1(O)CCC2[C@@H]3C(CCCCCN4CCC[C@H]4CCCCCC(F)(F)C(F)(F)F)Cc4cc(O)ccc4C3[C@@H](F)C[C@@]21C (stereo partly drawn) [Example C3, 11β-Fluoro-17α-methyl-7α-[5-[(2R)-2-(6,6,7,7,7-pentafluoroheptyl)-1-pyrrolidinyl]pentyl]oestra-1,3,5(10)-triene-3,17β-diol, reference compound] | 8 | 
10 | CN(CCCCCCCC(F)(F)C(F)(F)F)CCCCCC1Cc2c(ccc(O)c2Br)C2[C@@H]1C1CC[C@@](C)(O)[C@@]1(C)C[C@@H]2F (stereo partly drawn) [Example 5, 4-Bromo-11β-fluoro-17β-methyl-7α-[5-[methyl(8,8,9,9,9-pentafluorononyl)amino]pentyl]oestra-1,3,5(10)-triene-3,17α-diol] | 55 | 
11 | C[C@]12C[C@H](F)C3c4ccc(O)c(Br)c4CC(CCCCCN4CCC[C@H]4CCCCCCC(F)(F)C(F)(F)F)[C@H]3C1CC[C@@]2(C)O (stereo partly drawn) [Example 6, 4-Bromo-11β-fluoro-17β-methyl-7α-[5-[(2R)-2-(7,7,8,8,8-pentafluorooctyl)-1-pyrrolidinyl]pentyl]oestra-1,3,5(10)-triene-3,17α-diol] | 34 | 
12 | C[C@]12C[C@H](F)C3c4ccc(O)c(Cl)c4CC(CCCCCN4CCC[C@H]4CCCCCCC(F)(F)C(F)(F)F)[C@H]3C1CC[C@@]2(C)O (stereo partly drawn) [Example 7, 4-Chloro-11β-fluoro-17β-methyl-7α-[5-[(2R)-2-(7,7,8,8,8-pentafluorooctyl)-1-pyrrolidinyl]pentyl]oestra-1,3,5(10)-triene-3,17α-diol] | 47 | 
13 | CN(CCCCCCCC(F)(F)C(F)(F)F)CCCCCC1Cc2cc(O)ccc2C2[C@@H]1C1CC[C@@](C)(O)[C@@]1(C)C[C@@H]2F (stereo partly drawn) [Example 1, [5-(11β-Fluoro-3,17α-dihydroxy-17β-methyloestra-1,3,5(10)-trien-7α-yl)pentyl](methyl)(8,8,9,9,9-pentafluorononyl)amine] | 39 | 42-59%
